Results as given in patent US8389508B2 (Glaxo Group Limited, priority 2010, dated 2013).
Where a name gives a salt, the structure may show the parent alone.

Molecular target: T1, human Endothelial Differentiation G-protein Coupled Receptor 3 (EDG3), S1P3 receptor (Homo sapiens, UniProt Q99500)
T1 construct: expressed in transfected cells; host or cells: GeneBLAzer EDG3-Ga15-NFAT-bla HEK 293T
Assay: S1P3 Assay (GeneBLAzer EDG3-Ga15-NFAT-bla HEK 293T beta-lactamase reporter, agonist dose response)
Assay type: cell-based
Conditions: EDG3-Ga15-NFAT-bla HEK 293T cells, blue/green emission ratio, 10 point dose response, free base or salt form; read-out: pEC50 (S1P3 assay) (converted)
Method: GeneBLAzer EDG3-Ga15-NFAT-bla HEK 293T cells (contain the human Endothelial Differentiation G-protein Coupled Receptor 3 (EDG3) and a beta-lactamase reporter gene under control of a NFAT response element and a promiscuous G Protein, Ga15, stably integrated into the GeneBLAzer Ga15-NFAT-bla HEK 293T cell line) were harvested from growth medium and suspended in assay medium (90% DMEM, 10% Charcoal-stripped FBS, 0.1 mM NEAA, 25 mM HEPES (pH 7.3), 100 U/ml penicillin, 100 μg/ml streptomycin) at a density of […]. All test compounds were dissolved in DMSO at a concentration of 10 mM and were prepared in 100% DMSO to provide 10 point dose response curves. Test compounds in the free base or in a salt form were prepared by Velocity 11 Bravo automation (Agilent) were added to wells in columns 2-11 and 13-22; DMSO was added to wells in columns 12 and 23 as unstimulated controls and assay medium was added to wells in columns 1 and 24 as cell-free controls. An S1P3 agonist was added to wells in row 2, columns 2-11 as stimulated controls and test compounds were added to wells in row 2, columns 13-22 and rows 3-15, columns 2-11/13-22 (row 1 and 16 were empty and not used). Compounds in solution were added to the assay plate (Greiner 781090) using an Echo (Labcyte) dose-response program (50 nl/well). The unstimulated and cell-free controls were loaded with 50 nl/well pure DMSO to ensure that the DMSO concentration was constant across the plate for all assays.
50 μl of the cell suspension was added to each well in columns 2-23 of the plate (˜10,000 cells per well). 50 μl of assay medium was added to each well in the cell-free controls (columns 1 and 24). The cells were incubated overnight at 37° C./5% CO2.
(§1) 10 μl of 6× substrate mixture (LiveBLAzer™-FRET B/G substrate (CCF4-AM) Cat # K1096 from Invitrogen, Inc.) was added to each well using Bravo automation and the plates incubated at room temperature for 2 h in the dark. The plate was finally read on EnVision using one excitation channel (409 nm) and two emission channels (460 nm and 530 nm).
(§2) The blue/green emission ratio (460 nm/530 nm) was calculated for each well, by dividing the background-subtracted Blue emission values by the background-subtracted Green emission values. The dose response curve is based on sigmoidal dose-response model. All ratio data was normalized based upon the maximum emission ratio of positive control and minimum emission ratio of negative control (DMSO) on each plate. The intrinsic activity (IA) of each compound is defined as relative response normalised to a reference compound, whose maximum response is defined as 100% after curve fitting.

T1 sequence (Q99500 whole entry): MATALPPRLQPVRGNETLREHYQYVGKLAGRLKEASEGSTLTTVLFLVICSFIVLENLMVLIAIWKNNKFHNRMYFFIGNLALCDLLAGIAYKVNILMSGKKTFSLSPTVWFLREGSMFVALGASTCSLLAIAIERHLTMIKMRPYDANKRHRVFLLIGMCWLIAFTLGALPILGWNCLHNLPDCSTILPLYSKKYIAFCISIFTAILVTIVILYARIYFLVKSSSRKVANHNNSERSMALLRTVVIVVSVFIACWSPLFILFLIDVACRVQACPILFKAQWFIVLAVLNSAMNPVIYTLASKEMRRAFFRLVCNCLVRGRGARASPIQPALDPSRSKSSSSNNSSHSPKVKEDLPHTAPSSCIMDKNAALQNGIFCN

`CCc1c(CN2CCC[C@H]2C(=O)O)cccc1-c1cnc(-c2ccc(OC(C)C)c(C#N)c2)s1` [Example 81, 1-{[3-(2-{3-cyano-4-[(1-methylethyl)oxy]phenyl}-1,3-thiazol-5-yl)-2-ethylphenyl]methyl}-L-proline trifluoroacetate] and `CCc1c(CCN2CCC[C@@H]2C(=O)O)cccc1-c1cnc(-c2ccc(OC(C)C)c(C#N)c2)s1` [Example 89] cannot be ordered by EC50: > 10000 nM for the first, > 10000 nM for the second.

`CCc1c(CN2CCCC(C(=O)O)C2)cccc1-c1cnc(-c2ccc(OC(C)C)c(C#N)c2)s1` (centres unmarked) [Example 86] and `CCc1c(CCN2CCC[C@H](C(=O)O)C2)cccc1-c1nsc(-c2ccc(OC(C)C)c(Cl)c2)n1` [Example 71] cannot be ordered by EC50: > 10000 nM for the first, > 3160 nM for the second.

`CCc1c(CN2CCC(C(=O)O)CC2)cccc1-c1nsc(-c2ccc(CC(C)C)c(C#N)c2)n1` [Example 28, 1-[(3-{5-[3-cyano-4-(2-methylpropyl)phenyl]-1,2,4-thiadiazol-3-yl}-2-ethylphenyl)methyl]-4-piperidinecarboxylic acid] and `CCc1c(CN2CCC(CC(=O)O)CC2)cccc1-c1nsc(-c2ccc(OC(C)C)c(C(F)(F)F)c2)n1` [Example 20, {1-[(2-ethyl-3-{5-[4-[(1-methylethyl)oxy]-3-(trifluoromethyl)phenyl]-1,2,4-thiadiazol-3-yl}phenyl)methyl]-4-piperidinyl}acetic acid] cannot be ordered by EC50: > 10000 nM for the first, > 10000 nM for the second.

`CCc1c(-c2nnc(-c3ccc(OC(C)C)c(Cl)c3)s2)cccc1C1CCN(CCCC(=O)O)CC1` [Example 97, 4-{4-[3-(5-{3-chloro-4-[(1-methylethyl)oxy]phenyl}-1,3,4-thiadiazol-2-yl)-2-ethylphenyl]-1-piperidinyl}butanoic acid trifluoroacetate] and `CCc1c(-c2nnc(-c3ccc(OC(C)C)c(Cl)c3)s2)cccc1C1CCN(CCC(=O)O)CC1` [Example 95, 3-{4-[3-(5-{3-chloro-4-[(1-methylethyl)oxy]phenyl}-1,3,4-thiadiazol-2-yl)-2-ethylphenyl]-1-piperidinyl}propanoic acid trifluoroacetate] cannot be ordered by EC50: > 3160 nM for the first, > 3160 nM for the second.

`CCc1c(CCN2CC[C@H](C(=O)O)C2)cccc1-c1nsc(-c2ccc(OC(C)C)c(Cl)c2)n1` [Example 68] and `CCc1c(CCN2CCC(C(=O)O)C2)cccc1-c1nsc(-c2ccc(OC(C)C)c(Cl)c2)n1` (centres unmarked) [Example 67] cannot be ordered by EC50: > 3160 nM for the first, > 3160 nM for the second.

Molecular target: T2, human Endothelial Differentiation Gene 1 (EDG1), S1P1 receptor (Homo sapiens, UniProt P21453)
T2 construct: TEV protease site; Gal4-VP16 transcription factor; expressed in transfected cells; host or cells: EDG1-bla/U2OS (Tango GPCR-bla U2OS parental cell line)
Assay: S1P1 Assay (Tango EDG1-bla/U2OS beta-lactamase reporter, agonist dose response)
Assay type: cell-based
Conditions: EDG1-bla/U2OS cells, blue/green emission ratio, 10 point dose response, free base or salt form; read-out: pEC50 (S1P1 assay) (converted)
Method: Recombinant EDG1-bla/U2OS cells (contain the human Endothelial Differentiation Gene 1 (EDG1) linked to a TEV protease site and a Gal4-VP16 transcription factor stably integrated into the Tango GPCR-bla U2OS parental cell line) were harvested from growth medium and passaged into assay medium (Invitrogen Freestyle Expression Medium). The cells were starved for 24 hours at 37° C., 5% CO2, harvested and resuspended in assay medium at a density of ˜200,000 cells/ml. All test compounds were dissolved in DMSO at a concentration of 10 mM and were prepared in 100% DMSO to provide 10 point dose response curves. Test compounds in the free base or in a salt form were prepared by Velocity11 Bravo automation (Agilent) were added to wells in columns 2-11 and 13-22; DMSO was added to wells in columns 12 and 23 as unstimulated controls and assay medium was added to wells in columns 1 and 24 as cell-free controls. An S1P1 agonist was added to wells in row 2, columns 2-11 as stimulated controls and test compounds were added to wells in row 2, columns 13-22 and rows 3-15, columns 2-11/13-22 (row 1 and 16 were empty and not used). Compounds in solution were added to the assay plate (Greiner 781090) using an Echo (Labcyte) dose-response program (50 nl/well). The unstimulated and cell-free controls were loaded with 50 nl/well pure DMSO to ensure that the DMSO concentration was constant across the plate for all assays. 50 μl of the cell suspension was added to each well in columns 2-23 of the plate (˜10,000 cells per well). 50 μl of assay medium was added to each well in the cell-free controls (columns 1 and 24). The cells were incubated overnight at 37° C./5% CO2.
as §1, §2

T2 sequence (P21453 whole entry, the tested form may be a part): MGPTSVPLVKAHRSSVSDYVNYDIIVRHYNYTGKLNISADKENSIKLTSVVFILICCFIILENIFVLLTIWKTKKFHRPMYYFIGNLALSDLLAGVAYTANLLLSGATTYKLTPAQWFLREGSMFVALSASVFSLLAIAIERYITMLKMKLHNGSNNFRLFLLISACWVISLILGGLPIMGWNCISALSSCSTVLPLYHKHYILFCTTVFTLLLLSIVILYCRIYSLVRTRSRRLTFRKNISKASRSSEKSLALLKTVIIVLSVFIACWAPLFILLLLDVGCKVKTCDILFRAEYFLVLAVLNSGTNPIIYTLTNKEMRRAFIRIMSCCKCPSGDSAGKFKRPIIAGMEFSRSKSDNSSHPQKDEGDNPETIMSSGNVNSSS

`CCc1c(CCN2CCC(C(=O)O)CC2)cccc1-c1nsc(-c2ccc(CC(C)C)c(C#N)c2)n1` [Example 29, 1-[2-(3-{5-[3-cyano-4-(2-methylpropyl)phenyl]-1,2,4-thiadiazol-3-yl}-2-ethylphenyl)ethyl]-4-piperidinecarboxylic acid trifluoroacetate] and `CCc1c(CN2CC(C(=O)O)C2)cccc1-c1nsc(-c2ccc(CC(C)C)c(C#N)c2)n1` [Example 27, 1-[(3-{5-[3-cyano-4-(2-methylpropyl)phenyl]-1,2,4-thiadiazol-3-yl}-2-ethylphenyl)methyl]-3-azetidinecarboxylic acid trifluoroacetate] cannot be ordered by EC50: < 1 nM for the first, ≤ 10 nM for the second.

`CCc1c(CN2CC(C(=O)O)C2)cccc1-c1nsc(-c2ccc(OC(C)C)c(Cl)c2)n1` [Example 25, 1-{[3-(5-{3-chloro-4-[(1-methylethyl)oxy]phenyl}-1,2,4-thiadiazol-3-yl)-2-ethylphenyl]methyl}-3-azetidinecarboxylic acid trifluoroacetate] and `CCc1c(CCN2CC(C(=O)O)C2)cccc1-c1nsc(-c2ccc(OC(C)C)c(Cl)c2)n1` [Example 23, 1-{2-[3-(5-{3-chloro-4-[(1-methylethyl)oxy]phenyl}-1,2,4-thiadiazol-3-yl)-2-ethylphenyl]ethyl}-3-azetidinecarboxylic acid trifluoroacetate] cannot be ordered by EC50: ≤ 10 nM for the first, < 1 nM for the second.

`CCc1c(CCN2CCC(C(=O)O)CC2)cccc1-c1nsc(-c2ccc(OC(C)C)c(C(F)(F)F)c2)n1` [Example 21, 1-[2-(2-ethyl-3-{5-[4-[(1-methylethyl)oxy]-3-(trifluoromethyl)phenyl]-1,2,4-thiadiazol-3-yl}phenyl)ethyl]-4-piperidinecarboxylic acid] and `CCc1c(CCN2CC(C(=O)O)C2)cccc1-c1nsc(-c2ccc(OC(C)C)c(C(F)(F)F)c2)n1` [Example 22, 1-[2-(2-ethyl-3-{5-[4-[(1-methylethyl)oxy]-3-(trifluoromethyl)phenyl]-1,2,4-thiadiazol-3-yl}phenyl)ethyl]-3-azetidinecarboxylic acid] cannot be ordered by EC50: < 1 nM for the first, < 1 nM for the second.

`CCc1c(CN2CCC(C(=O)O)CC2)cccc1-c1cnc(-c2ccc(OC(C)C)c(C#N)c2)s1` [Example 35, 1-{[3-(2-{3-cyano-4-[(1-methylethyl)oxy]phenyl}-1,3-thiazol-5-yl)-2-ethylphenyl]methyl}-4-piperidinecarboxylic acid trifluoroacetate] and `CCc1c(CCN2CCC(C(=O)O)C2)cccc1-c1cnc(-c2ccc(OC(C)C)c(C#N)c2)s1` (centres unmarked) [Example 90] cannot be ordered by EC50: ≤ 10 nM for the first, < 1 nM for the second.

`CCc1c(CCN2CCC(C(=O)O)CC2)cccc1-c1nsc(-c2ccc(OC(C)C)c(Cl)c2)n1` [Example 24, 1-{2-[3-(5-{3-chloro-4-[(1-methylethyl)oxy]phenyl}-1,2,4-thiadiazol-3-yl)-2-ethylphenyl]ethyl}-4-piperidinecarboxylic acid trifluoroacetate] and `CCc1c(CCN2CCC(C(=O)O)CC2)cccc1-c1cnc(-c2ccc(OC(C)C)c(Cl)c2)s1` [Example 40, 1-{2-[3-(2-{3-chloro-4-[(1-methylethyl)oxy]phenyl}-1,3-thiazol-5-yl)-2-ethylphenyl]ethyl}-4-piperidinecarboxylic acid trifluoroacetate] cannot be ordered by EC50: < 1 nM for the first, < 1 nM for the second.

`CCc1c(CN2CC(C(=O)O)C2)cccc1-c1nnc(-c2ccc(OC(C)C)c(C(F)(F)F)c2)s1` [Example 2, 1-[(2-ethyl-3-{5-[4-[(1-methylethyl)oxy]-3-(trifluoromethyl)phenyl]-1,3,4-thiadiazol-2-yl}phenyl)methyl]-3-azetidinecarboxylic acid] and `CCc1c(CN2CC(C(=O)O)C2)cccc1-c1nsc(-c2ccc(OC(C)C)c(C(F)(F)F)c2)n1` [Example 19, 1-[(2-ethyl-3-{5-[4-[(1-methylethyl)oxy]-3-(trifluoromethyl)phenyl]-1,2,4-thiadiazol-3-yl}phenyl)methyl]-3-azetidinecarboxylic acid] cannot be ordered by EC50: < 1 nM for the first, < 1 nM for the second.

With `CCc1c(CCN2CC(C(=O)O)C2)cccc1-c1nnc(-c2ccc(OC(C)C)c(Cl)c2)s1` [Example 6, 1-{2-[3-(5-{3-chloro-4-[(1-methylethyl)oxy]phenyl}-1,3,4-thiadiazol-2-yl)-2-ethylphenyl]ethyl}-3-azetidinecarboxylic acid trifluoroacetate] the EC50 was < 1 nM.
